Assay results from publication PMC12631873 (Advanced Science, 2025).
Square brackets hold non-standard residues; d marks the D form. Peptide text beside a SMILES is read from it. * marks the point of attachment. X1 = CN1/C(=C/C=C/C=C/C2=[N+](CCCCCC(=O)*)c3ccc(S(=O)(=O)[O-])cc3C2(C)C)C(C)(C)c2cc(S(=O)(=O)O)ccc21; Hyp = O=C(O)[C@@H]1C[C@@H](O)CN1; Nlys = NCCCCNCC(=O)O; Ahx = NCCCCCC(=O)O

Tests used:
vitreous bodies and skin = assay: In vivo uptake in vitreous bodies and skin; conditions: mouse, 2 h post i.v. injection of 2 nmol
Procedure: Typically, the fluorescence peptides or peptoids were prepared at a dose of 1 nmol (10 µM in 100 µL of 1× PBS buffer) and injected into the tail vein of each mouse 2 h prior to fluorescence imaging with an IVIS Spectrum imager (PerkinElmer Lumina III). For Figure 4, Figures S17 and S18 (Supporting Information) (joint aging and RA) and Figure S27 (Supporting Information), 2 nmol of Cy5‐(NlysO)7 (20 µM in 100 µL of 1× PBS buffer) were i.v. administered to each mouse. For 1‐week‐old neonatal mice, 1 nmol of Cy5‐(NlysO)7 (20 µM in 50 µL of 1× PBS buffer) was intravenously injected into each mouse. All in vivo imaging was performed 2 h post probe injection with the IVIS Spectrum imager (PerkinElmer, fluorescence: ex/em: 620/670 nm, exposure: 1 s, bing: 4, F/Stop: 2; field of view: A/B/C/Z). Mice were anesthesia with 3% isoflurane (RWD, R510‐22‐10) during image acquisition. Hair in the knee areas was removed before fluorescence imaging for mice in Figure 4a and Figure S17 (Supporting Information). The mice were euthanized following the final image acquisition and occasionally imaged again after skin and organ removal. […] All acquired fluorescence images were analyzed using the Living Image software (PerkinElmer). The fluorescence signal from each specimen was measured by quantifying the average radiation efficiency within the selected oval‐shaped regions‐of‐interest.

[1] = Routine (whole) blood tests after repeated dosing; assay type: in vivo, mouse; conditions: C57BL/6J mice, 3 weekly i.v. doses of 2 nmol over 14 days, n = 5
Procedure: Whole blood tests: Each C57BL/6J mouse (6–8 weeks old) was intravenously injected with 100 µL of PBS buffer or with each peptide or peptoid probe (2 nmol in 100 µL 1× PBS buffer per mouse) on days 0, 7, and 14. The mice were sacrificed on day 15, 24 h after the final injection. The heart, liver, spleen, lungs, and kidneys were collected from each mouse and processed into formalin‐fixed paraffin‐embedded sections for histological evaluation with H&E staining. Whole blood was collected. Both H&E and blood sample analyses were performed by Wuhan Servicebio.

cartilage = assay: In vivo and ex vivo fluorescence imaging of cartilage uptake and retention in nude mice; set-up: species or system mouse
Description: All procedures for mouse maintenance and experiments strictly followed the policy of the Experimental Animal Ethics Committee of the Fifth Affiliated Hospital of Sun Yat‐sen University (protocol numbers: 00361, 00436). Balb/c nu mice (male, 10‐18 weeks old) were used for the general in vivo imaging experiments (Figure 3c–f; Figures S10–S14, Supporting Information). For Figure 3g,h and Figure S16 (Supporting Information), neonatal Balb/c mice (7 days old) were used. Female Balb/c mice (74 weeks old versus 12 weeks old) were used in the aged joint imaging experiment reported in Figure 4a–c and Figure S17 (Supporting Information). The RA model was made using female Balb/c mice (6‐8 weeks old) by intraperitoneal injection of an anti‐collagen antibody cocktail (1.5 mg per mouse; Chondrex, 53100) followed by selective subcutaneous injection of lipopolysaccharide (LPS, 12.5 µg per mouse, Chondrex, 53100) into the left hind paw three days later.^[ [30] ^] C57BL/6J mice (male, 6–8 weeks old) were used for the biocompatibility tests (Figures S23–S25, Supporting Information).
(§1) Typically, the fluorescence peptides or peptoids were prepared at a dose of 1 nmol (10 µM in 100 µL of 1× PBS buffer) and injected into the tail vein of each mouse 2 h prior to fluorescence imaging with an IVIS Spectrum imager (PerkinElmer Lumina III). For Figure 4, Figures S17 and S18 (Supporting Information) (joint aging and RA) and Figure S27 (Supporting Information), 2 nmol of Cy5‐(NlysO)7 (20 µM in 100 µL of 1× PBS buffer) were i.v. administered to each mouse. For 1‐week‐old neonatal mice, 1 nmol of Cy5‐(NlysO)7 (20 µM in 50 µL of 1× PBS buffer) was intravenously injected into each mouse. All in vivo imaging was performed 2 h post probe injection with the IVIS Spectrum imager (PerkinElmer, fluorescence: ex/em: 620/670 nm, exposure: 1 s, bing: 4, F/Stop: 2; field of view: A/B/C/Z). Mice were anesthesia with 3% isoflurane (RWD, R510‐22‐10) during image acquisition. Hair in the knee areas was removed before fluorescence imaging for mice in Figure 4a and Figure S17 (Supporting Information). The mice were euthanized following the final image acquisition and occasionally imaged again after skin and organ removal. Next, the airways, ankles, ears, paws, knees, tails, spines, and chest ribs were collected, imaged, and saved for subsequent histology analysis. All acquired fluorescence images were analyzed using the Living Image software (PerkinElmer). The fluorescence signal from each specimen was measured by quantifying the average radiation efficiency within the selected oval‐shaped regions‐of‐interest.
For the cartilage retention experiments (Figures S11 and S12, Supporting Information), Cy5‐(NlysO)7 (10 µM in 100 µL of 1× PBS buffer) was administered via tail vein to four male Balb/c nu mice (10 weeks old) at 2, 24, 48, and 96 h respectively, prior to fluorescence imaging using an IVIS Spectrum imaging system (ex/em: 620/670 nm, exposure: 1 s, bing: 4, F/Stop: 2). Following euthanasia, their cartilaginous tissues were harvested and imaged. The fluorescence images were analyzed and quantified as described above.

[2] = Organ fluorescence 2 h post-injection (clearance route); assay type: in vivo, mouse; conditions: nude mice, organs isolated 2 h post i.v. injection of 1 nmol
Procedure: as §1

[3] = Blood biochemical analysis; assay type: in vivo, mouse; conditions: C57BL/6J mice, 24 h post i.v. injection of 2 nmol, n = 5
Procedure: Blood biochemical analysis: Each C57BL/6J mouse (6–8 weeks old) was intravenously injected with 100 µL of PBS or Cy5‐(NlysO)7 (2 nmol in 100 µL 1× PBS buffer per mouse) 24 h prior to blood collection for the biochemical analysis. Biochemical analysis of the blood was performed by Wuhan Servicebio.

[4] = In vitro cartilage uptake (absorption); conditions: after 30 min; 10 mg porcine cartilage slice, 10 µM in 200 µL 1× PBS, room temperature, fluorescence, n = 6
Procedure: Porcine cartilage was freshly harvested from the articular cartilage of an adult pig's knee joint obtained from a local slaughterhouse. Porcine cartilage plugs (diameter: 6 mm) were excised using an osteotomy drill with constant rinsing with PBS buffer for cooling. All solutions in the experiments with unfixed porcine cartilage samples (e.g., Figure 2d–f; Figures S5 and S6, Supporting Information) contained 100 U mL^−1 penicillin and 0.1 mg mL^−1 streptomycin (Solarbio, P1400) to prevent bacterial growth.
The porcine cartilage plugs were carefully cut into small cuboids with a uniform size (≈5 × 1 × 2 mm, ≈10 mg by wet weight). […] Each incubation bath was aliquoted so its fluorescence FN1 of the incubation bath was measured without the cartilage samples using a microplate reader (PerkinElmer EnVision; excitation: 646 nm, emission: 662 nm) at specified time points (N1 = 0.5, 1, 2, 4, 6, 8, 10, 12, and 24 h) to estimate the absorption of the probes (Figure 2d; Figure S5, Supporting Information), while fluorescence levels of the compound solutions pre‐measured before incubation were recorded as Fpre. The unabsorbed percent was calculated as FN1/Fpre×100%, and the final fluorescence measurement after 24 h of absorption was recorded as F24h. […]

Row | SMILES | in vivo fluorescence uptake in vitreous bodies and skin compared to cartilage (vitreous bodies and skin) | routine blood analyses vs PBS control group [1] | in vivo retention in joints and ribs compared to peptide sequences Cy5-(GKO)7 and Cy5-R8 (cartilage; 1 nmol i.v., 0-96 h) | fluorescence in cartilage-rich tissues (knee joints, ribs) 2-96 h post-injection (cartilage; 1 nmol i.v., imaged at 2, 24, 48, 96 h) | clearance route from organ fluorescence [2] | blood biochemical analytes (ALT, AST, TBIL, UREA, BUN, CREA) vs PBS group [3] | unabsorbed percent of starting concentration remaining in solution [4] | time post-injection that in vivo signals in knee joints and thoracic costal cartilage remained detectable (cartilage; 1 nmol tail-vein injection, monitored over 96 h)
1 | CN1/C(=C/C=C/C=C/C2=[N+](CCCCCC(=O)NCCCCCC(=O)N(CCCCN)CC(=O)N3C[C@H](O)C[C@H]3C(=O)N(CCCCN)CC(=O)N3C[C@H](O)C[C@H]3C(=O)N(CCCCN)CC(=O)N3C[C@H](O)C[C@H]3C(=O)N(CCCCN)CC(=O)N3C[C@H](O)C[C@H]3C(=O)N(CCCCN)CC(=O)N3C[C@H](O)C[C@H]3C(=O)N(CCCCN)CC(=O)N3C[C@H](O)C[C@H]3C(=O)N(CCCCN)CC(=O)N3C[C@H](O)C[C@H]3C(N)=O)c3ccc(S(=O)(=O)[O-])cc3C2(C)C)C(C)(C)c2cc(S(=O)(=O)O)ccc21 [Cy5‐(NlysO)7] ({X1-Ahx}-[Nlys][Hyp][Nlys][Hyp][Nlys][Hyp][Nlys][Hyp][Nlys][Hyp][Nlys][Hyp][Nlys][Hyp]-NH2) | virtually no in vivo fluorescence uptake | None of the measurements | stronger retention in the joints and ribs in vivo | at 48 h but not 96 h | might be mainly cleared through kidneys | no key analytes from the Cy5‐(NlysO)7 group significantly differed |  | 
2 | CN1/C(=C/C=C/C=C/C2=[N+](CCCCCC(=O)NCCCCCC(=O)N[C@@H](CCCNC(=N)N)C(=O)N[C@@H](CCCNC(=N)N)C(=O)N[C@@H](CCCNC(=N)N)C(=O)N[C@@H](CCCNC(=N)N)C(=O)N[C@@H](CCCNC(=N)N)C(=O)N[C@@H](CCCNC(=N)N)C(=O)N[C@@H](CCCNC(=N)N)C(=O)N[C@@H](CCCNC(=N)N)C(N)=O)c3ccc(S(=O)(=O)[O-])cc3C2(C)C)C(C)(C)c2cc(S(=O)(=O)O)ccc21 [Cy5‐R8, reference compound] |  |  |  |  |  |  | ≈ 20% | difficult to find after 2 h post‐injection
